# Measured values reported in patent US8592603B2, “Synthesis of 2-(4-aminophenyl) benzothiazole derivatives and use thereof” (Kaohsiung Medical University, priority 2011, dated 2013).
# Where two headings read alike, the source gives them in different places.
# How the values were obtained:
# Assay type in all cases: cell-based, human
# [1] = system: BCC cells; assay: Cell viability by MTT assay after compound and UVA irradiation; conditions: for viability at 4 µM: Homo sapiens, BCC, light or radiation study, read-out: cell viability compared with untreated controls
# Method: (A) Dose-response curves for compound 6 ftested against BCC cells. Cells were seeded in a 96-well plate at 2500 cells per well and cultivated overnight until cell attachment. 6f-UVA at the indicated concentration was added into the culture media in triplicate and incubated for 4 h before 1 J/cm2 UVA irradiation. Twenty-four hours after irradiation, the MTT reagent was added into each well. The absorbance is directly proportional to the number of living cells. (B) To clarify whether 6-UVA has more cytotoxicity than either UVA irradiation alone or treatment with 6 alone, cells were cultured with or without 4 μM Formula 6f before different dosage of UVA irradiation. *p<0.05, **p<0.01 as compared with the control.
# The method for UVA irradiation was described in the previous study (Kao, C. S.; Yu, H. S. J. Invest. Dermatol. 1992, 98, 734). For UVA irradiation, a specific UVA lamp emitting a peak wavelength of 365 nm with intensity of 0.75 mW/cm^2 (Vilber Lourmat, Moune La Vallee, Cedex, France) was used. The cultured cells were pretreated with different agents at 4 μM or pretreated with various concentrations (0-4 μM) of Formula 6 for 4 h before UVA irradiation. The cultured cells were rinsed with phosphate-buffered saline (PBS) and then irradiated with 1 J/cm^2 UVA in PBS to avoid the formation of medium-derived toxic photoproducts induced by UV exposure. The doses of irradiation were measured using a UVX radiometer (UVP, San Gabriel, Calif., USA). Immediately after phototreatment, PBS was removed and media were added to the cells. All the following experiments were performed three times in triplicate.
# Cell viability was assessed by the MTT assay, a mitochondrial function assay based on the ability of viable cells to reduce the redox indicator MTT to insoluble formazan crystals by mitochondrial dehydrogenase. Briefly, cells were seeded in a 96-well plate at the cell density of 2500 cells/well. After an overnight incubation, the cells were treated with compounds at 4 μM and incubated for 24 h. The medium was then discarded and replaced with 10 μL of MTT dye. Plates were incubated at 37° C. for 2 h. The resulting formazan crystals were solubilized in 100 μL DMSO, and the optical density was read at 540 nm with a microplate reader (MRX-II, Dynex technology, Chantilly, Va.).
# [2] = system: BCC cells; assay: Annexin V and PI binding assay; conditions: for apoptotic cells (annexin V+/PI−): BCC cells, 1 J/cm^2 UVA
# Method: (A) The increased enzymatic activities of the caspase-3 in apoptotic were determined by colorimetric reaction. The cleavage of peptide by the caspase releases the chromophore pNA (p-nitroaniline), which can be quantified spectrophotometrically at a wavelength of 405 nm. (B) Dot plots for BCC cells treated with various concentrations of 6f-UVA and then stained with PI and an annexin V-FITC conjugate specifically detecting the exposure of PS residues at the cell surface. (C) Morphological observation and annexin V/PI double stain were used for the detection of fibroblasts apoptosis. Approximately 10000 cells from each group were analyzed by flow cytometry. Data shown are of a representative experiment repeated three times with similar results. ** p<0.01 as compared with the control.
# To assess the simultaneous observation of early phase of apoptotic and necrotic features, BCC cells were treated with various concentrations (0-4 μM) of Formula 6f for 4 h before irradiation. Twenty-four hours after irradiation, cells were harvested by trypsinization and centrifugation and measured by cytometry by adding annexin V-FITC to […] per sample according to the manufacturer's specifications (Bender MedSystems, Vienna, Austria). Simultaneously, the cells were stained with PI. Flow cytometry data were analyzed by the WinMDI software.
# [3] = system: BCC cells; assay: ATP content bioluminescence assay
# Method: (A) 6f-UVA induced ROS generation in BCC cells. Histogram of fluorescence vs cell count in BCC cells with various concentrations of 6f-UVA and stained with DCFH-DA. As a control, ROS was measured in the presence of catalase, a H2O2 scavenger. (B) The ΔΨmt of BCC cells after exposure to 6f-UVA. Cells were treated with 0, 2, and 4 μM Formula 6f for 4 h followed by 1 J/cm2 UVA irradiation, then stained with DiOC6 and analyzed immediately by flow cytometry as described under Materials and Methods. The number in M1 indicates the percentage of cells with reduced ΔΨmt. Approximately 10000 cells from each group were analyzed by flow cytometry. (C) Relative ATP levels were calculated as the percentage of the 0 μM level. Similar results were obtained in three independent experiments. *p<0.05, ** p<0.01 as compared with the control.
# The amount of intracellular ATP was determined by bioluminescent assay based on the measurement of the light output of the luciferin-luciferase reaction. After treatment with various concentrations of 6f-UVA, total cell extracts from cultured BCC cells were obtained immediately by lysing solution. After centrifugation to remove cell debris, the supernatants were collected for ATP measurement. The total amount of intracellular ATP was determined according to the protocol provided with the ATPLite assay kit (Perkin Elmer, Boston, Mass.).
compound,measurement,setting,value
"Nc1ccc(-c2nc3ccc(C(F)(F)F)cc3s2)cc1 [Formula 6f, 2-(4-Aminophenyl)-6-trifluoromethylbenzothiazole]",cell survival,"[1]; BCC cells, 4 μM for 4 h, 1 J/cm^2 UVA, 24 h after exposure (FIG. 3A)",below 50%
same,inhibitory effect on cell viability,"[1]; BCC cells, different concentrations for 4 h, 1 J/cm^2 UVA (FIG. 3A)",dependent on drug concentration
same,viability at 4 µM,"[1]; BCC cells, 0.25 J/cm^2 UVA",71%
same,viability at 4 µM,"[1]; BCC cells, 0.5 J/cm^2 UVA",65%
same,viability at 4 µM,"[1]; BCC cells, 1 J/cm^2 UVA",45%
same,cytotoxicity against BCC cells,"[1]; compound alone, without UVA irradiation (FIG. 3B)",does not have cytotoxicity
same,necrotic cells (annexin V+/PI+),"[2]; BCC cells, 0, 2, and 4 μM, 1 J/cm^2 UVA (FIG. 4B)",no obvious change
same,apoptotic cells (annexin V+/PI−),[2]; 2 μM,19.5%
same,apoptotic cells (annexin V+/PI−),[2]; 4 μM,27.5%
same,decrease of intracellular ATP content compared with untreated control,[3]; 2 μM 6f-UVA,about 30%
same,decrease of intracellular ATP content compared with untreated control,[3]; 4 μM 6f-UVA,~45%
